Source: patent US10781215B2, “Heterobicyclic compounds useful as modulators of IL-12, IL-23 and/or IFNα responses” (BRISTOL-MYERS SQUIBB COMPANY, priority 2016, dated 2020)

Experiments:
[1] = tested on: IL-23 stimulated Kit225 T cells (STAT-dependent luciferase reporter); assay: Kit225 T cell assay, IL-23 stimulated STAT-dependent luciferase reporter; type: cell-based; settings: 20 ng/mL human recombinant IL-23, 5-6 hours
Protocol: (§1) Kit225 T cells with a stably-integrated STAT-dependent luciferase reporter were plated in RPMI (Gibco) containing 10% heat-inactivated FBS (Gibco) and 100 U/mL PenStrep (Gibco). The cells were then stimulated with either 20 ng/mL human recombinant IL-23 or 200 U/mL human recombinant IFNα (PBL InterferonSource) for 5-6 hours. Luciferase expression was measured using the STEADY-GLO® Luciferase Assay System (Promega) according to the manufacturer's instructions. Inhibition data were calculated by comparison to no inhibitor control wells for 0% inhibition and non-stimulated control wells for 100% inhibition. Dose response curves were generated to determine the concentration required to inhibit 50% of cellular response (IC50) as derived by non-linear regression analysis.

[2] = tested on: IFNα stimulated Kit225 T cells (STAT-dependent luciferase reporter); assay: Kit225 T cell assay, IFNα stimulated STAT-dependent luciferase reporter; type: cell-based; settings: 200 U/mL human recombinant IFNα, 5-6 hours
Protocol: as §1

[3] = target: T1, recombinant human His-tagged Tyk2 pseudokinase domain (His-TVMV-Tyk2, 575-869) (Homo sapiens, UniProt P29597); assay: Probe displacement assay (HTRF format); type: binding; settings: fluorescein labeled probe, Tyk2 pseudokinase domain 0.5 nM
T1 construct: made in house
Protocol: To 10 μL 26 nM fluorescein labeled probe plus 0.2 nM anti-6×His-terbium labeled antibody (Medarex, labeled by Cisbio) in assay buffer (20 mM Hepes pH 7.5, 150 mM NaCl, 10 mM MgCl2, 2 mM DTT, 50 μg/mL BSA, and 0.015% Brij 35) was added 10 μL recombinant human His-tagged Tyk2 pseudokinase domain (His-TVMV-Tyk2, 575-869) to a final concentration of 0.5 nM. After 1 h at room temperature, the HTRF signal (ratio of fluorescence intensities at emission wavelengths for fluorescein acceptor at 520 nm and terbium donor at 495 nm) was measured on an Envision Plate Reader. Percent inhibition was calculated by comparison to a control without inhibitor and a control without protein. Dose response curves were generated to determine the concentration required for inhibiting 50% of the HTRF signal (EC50).

T1 sequence (P29597 with tags, fused parts or gaps): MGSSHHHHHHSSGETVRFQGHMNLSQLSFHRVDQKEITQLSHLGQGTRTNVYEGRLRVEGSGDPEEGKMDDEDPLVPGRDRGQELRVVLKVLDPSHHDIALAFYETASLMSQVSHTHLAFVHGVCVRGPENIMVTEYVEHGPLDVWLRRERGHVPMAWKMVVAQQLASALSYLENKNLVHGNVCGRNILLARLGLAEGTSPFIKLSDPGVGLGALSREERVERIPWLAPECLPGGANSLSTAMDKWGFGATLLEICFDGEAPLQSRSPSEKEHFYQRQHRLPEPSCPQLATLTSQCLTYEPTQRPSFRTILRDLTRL

IC50 [1]	IC50 [2]	EC50 [3]	SMILES
75 nM	67 nM	0.6 nM	COc1ccc(Nc2cc(Nc3ncccc3S(C)(=O)=O)c3nc(C)[nH]c3n2)nc1 [Example 42, 7-N-(3-methanesulfonylpyridin-2-yl)-5-N-(5-methoxypyridin-2-yl)-2-methyl-3H-imidazo[4,5-b]pyridine-5,7-diamine]
367 nM	267 nM	1.1 nM	Cc1nc2c(Nc3ncccc3S(C)(=O)=O)cc(Nc3ccc(N4CCOCC4)cn3)nc2[nH]1 [Example 50, 7-N-(3-methanesulfonylpyridin-2-yl)-2-methyl-5-N-[5-(morpholin-4-yl)pyridin-2-yl]-3H-imidazo[4,5-b]pyridine-5,7-diamine]
742 nM	307 nM	0.6 nM	Cc1cnc(Nc2cc(Nc3ncccc3S(C)(=O)=O)c3nc(C)[nH]c3n2)cn1 [Example 48, 7-N-(3-methanesulfonylpyridin-2-yl)-2-methyl-5-N-(5-methylpyrazin-2-yl)-3H-imidazo[4,5-b]pyridine-5,7-diamine]
